Reference: patent publication US5817689A, “Indole derivatives having a 2-phenyl-ethanolamino-substituted lower alkyl group at the 2-or 3-position thereof” (priority 1994, dated 1998)

How the values were obtained:
[1] = target: T1, human β3 -adrenergic receptor (Homo sapiens, UniProt P13945); assay: Human β3-adrenergic receptor-stimulating activity (cAMP accumulation in CHO/pKREX10-36 cells); type: cell-based
T1 construct: expressed in transfected cells; host or cells: CHO-K1 (ATCC CCL 61), clone CHO/pKREX10-36
Procedure: Establishment of the cell line highly expressing human β3 -adrenergic receptor
Separately, another expression vector for animal cells, pSV2-neo [Southern and Berg, J. Mol. Appl. Genet. […] These DNAs were ligated with DNA Ligation Kit (Takara Shuzo Co., Ltd.) and were introduced into E. coli HB101 in a conventional manner to give the transformants. Plasmid DNAs were prepared from the transformants and digested with a restriction endonuclease PstI. A clone which produced about 3.8 kbp, 2.2 kbp, 1.4 kbp, and 0.9 kbp fragments was selected to give a plasmid named pKCN0.
The reaction mixture was used for transformation of E. coli HB101 and plasmid DNAs were prepared from the selected transformants. The plasmid DNAs were digested with restriction endonucleases DraI and HindIII, and a clone which produced about 430 bp fragment was selected to give a plasmid named pKCN1 for expression vector.
10% Dimethyl sulfoxide was added to the reaction mixture at the PCR reaction.
After the reaction mixture was digested with restriction endonucleases Sse8387I and StuI, about 1.3 kbp fragment was isolated by electrophoresis. This fragment was ligated with expression vector pKCN1 which was digested with restriction endonucleases Sse8387I and EcoRV, and the resultant was introduced into E. coli HB101 in a conventional manner. Plasmid DNA was prepared from the selected transformant and the nucleotide sequence of the about 1.3 kbp fragment obtained by digestion of the plasmid DNA with restriction endonucleases Sse8387I and XhoI was determined. […] This plasmid for expressing human β3 -adrenergic receptor was named as pKREX10.
The reaction mixture was filtered with glass filter GF/C (Whatman) presoaked with 0.3% polyethyleneimine and washed by using BIO-DOT apparatus (Bio-Rad Laboratories), and the radioactivity on the filter was counted by γ-ray counter. […] Establishment of the cell line highly expressing human β2 -adrenergic receptor
(§1) Experiment 1 Human β-adrenergic receptor-stimulating activity:
(§2) The cells were peeled off by incubation with phosphate-buffered saline containing 0.5 mM EDTA at 37° C. for 10 minutes after the medium was removed. The CHO/pKREX10-36 cells were collected by centrifugation, and suspended in Hanks' balanced salts (ICN Biomedicals) containing 1 mM L-ascorbic acid and 1 mM 3-isobutyl-1-methylxanthine at the concentration of about 2×10^6cells/ml. This suspension (100μl) and a test compound were mixed in the same balanced salt (500 μl) and incubated at 37° C. for 30 minutes, followed by boiling for 5 minutes to terminate the reaction. After centrifugation of the reaction mixture, the amount of cAMP in the supernatant was measured by using cAMP EIA System (Amersham).

[2] = target: T2, human β2 -adrenergic receptor (Homo sapiens, UniProt P07550); assay: Human β2-adrenergic receptor-stimulating activity (cAMP accumulation in CHO/pKREX21-8 cells); type: cell-based
T2 construct: expressed in transfected cells; host or cells: CHO-K1, clone CHO/pKREX21-8
Description: cDNA was synthesized with Poly(A)^+ RNA derived from human brain (Clontech: trade number; CL6516-1) by using SuperScript Systems (Life Technologies).
After the reaction mixture was digested with restriction endonucleases Sse8387I and HindIII, about 1.4 kbp fragment was isolated by electrophoresis. This fragment was ligated with expression vector pKCN1 digested with restriction endonucleases Sse8387I and HindIII, and was introduced into E. coli HB101 in a conventional manner. Plasmid DNA was prepared from the selected transformant, and the nucleotide sequence of the about 1.4 kbp fragment obtained by digestion of this plasmid DNA with restriction endonucleases Sse8387I and HindIII was determined. […] This plasmid was named as pKREX21 for highly expressing human β2 -adrenergic receptor, and was introduced into CHO-K1 in the same manner as the method of establishment of the cell line highly expressing human β3 -adrenergic receptor.
as §1, §2
Similarly, the amount of cAMP was measured by using CHO/pKREX21-8 for highly expressing human β2 -adrenergic receptor instead of the CHO/pKREX10-36 for highly expressing human β3 -adrenergic receptor.

[3] = tested on: glucose level in the blood; assay: Blood glucose reducing activity on fasted mouse; type: in vivo, ddY male mouse; conditions: po, 3 h, read-out: Blood glucose reducing activity (ED25)
Procedure: Experiment 2 Blood glucose reducing activity on fasted mouse:
A test compound suspended in 0.5% tragacanth solution was orally administered to a ddY male mouse (weight: 20-30 g) under being fasted, and the blood was collected before and at three hours after the administration of the test compound. The glucose level in the blood was determined by the method of Kunst A., et al. (Hexokinase/G6PDH method) [Bergmeyer, H. U. (eds.), […], vol. VI, 3rd edition, Verlag Chemie GmbH, Weinheim·Deerfield Beach, Florida·Basel, 163-172 (1984)]. The blood glucose reducing activity of the test compound was expressed by ED25 value which is a concentration of the test compound required to reduce the glucose level in blood before the administration of the test compound by 25%. Gliclazide was used as a reference compound which is a commercially available drug for treatment of diabetes mellitus.

[4] = Acute toxicity experiment using mice; type: in vivo; conditions: oral administration at a dose of 300 mg/kg
Description: Thus, when taking into consideration the therapeutically effective dose, the compounds of the present invention have no problem in safety to living body.

T2 sequence (P07550 whole entry): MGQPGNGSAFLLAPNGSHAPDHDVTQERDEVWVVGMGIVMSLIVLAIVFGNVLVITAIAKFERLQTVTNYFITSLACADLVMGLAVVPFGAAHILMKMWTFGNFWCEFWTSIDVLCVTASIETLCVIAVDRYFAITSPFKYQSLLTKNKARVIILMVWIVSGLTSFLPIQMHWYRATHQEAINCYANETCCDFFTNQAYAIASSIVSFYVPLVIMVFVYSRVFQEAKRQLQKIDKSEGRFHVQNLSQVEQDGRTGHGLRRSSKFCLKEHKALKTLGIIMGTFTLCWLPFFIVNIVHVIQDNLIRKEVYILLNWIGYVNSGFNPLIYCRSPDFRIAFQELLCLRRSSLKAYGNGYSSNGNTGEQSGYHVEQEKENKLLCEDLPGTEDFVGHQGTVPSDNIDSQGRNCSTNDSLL
T1 sequence (P13945 whole entry): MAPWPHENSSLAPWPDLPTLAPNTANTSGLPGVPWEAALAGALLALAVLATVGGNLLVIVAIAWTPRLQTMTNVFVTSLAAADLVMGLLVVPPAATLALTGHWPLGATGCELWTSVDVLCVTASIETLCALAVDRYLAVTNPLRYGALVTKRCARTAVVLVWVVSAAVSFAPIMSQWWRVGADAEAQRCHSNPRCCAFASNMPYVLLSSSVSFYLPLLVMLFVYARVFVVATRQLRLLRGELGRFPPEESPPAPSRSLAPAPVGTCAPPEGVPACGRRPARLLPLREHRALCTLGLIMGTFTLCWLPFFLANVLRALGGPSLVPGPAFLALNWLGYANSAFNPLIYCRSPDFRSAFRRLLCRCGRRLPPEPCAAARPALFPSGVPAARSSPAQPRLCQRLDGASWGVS

In the case of COc1cccc2c(CC(C)NC[C@H](O)c3cccc(Cl)c3)c[nH]c12 (stereo partly drawn) [Example 1-A, 2-[3-(7-methoxyindol-3-yl)-2-propylamino]-(1R)-1-(3-chlorophenyl)ethanol], the EC50 ([1]; 50% of cAMP accumulation, CHO/pKREX10-36, 37° C., 30 minutes, read-out: EC50 value β3 -receptor) is reported as 0.67 nM, the Emax ([1]; read-out: I.A. value β3 -receptor) is reported as 114% and the EC50 [2] is reported as 13 nM. For the same compound, the Emax ([2]; read-out: I.A. value β2 -receptor) was 36%, the ED25 [3] was 3 µg/kg and the acute toxicity [4] was “no toxicity at all”.
